Results published in patent US11505543B2, “4-oxo-3,4-dihydroquinazoline compounds as inhibitors of human immunodeficiency virus replication” (VIIV HEALTHCARE UK (NO.5) LIMITED, priority 2018, dated 2022).

Tests used:
[1] = Compound cytotoxicity, XTT-based colorimetric assay; format: cell-based; conditions: human, uninfected MT2 cells, day 4, XTT
Summary of the method: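 Run under the antiviral-assay protocol but without virus. Viability was read on day 4 and CC50 values were derived from the readout.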

[2] = system: recombinant NL4-3 virus (nef section replaced with Renilla luciferase gene) in MT-2 cells; assay: HIV cell culture assay (antiviral activity, luciferase readout); format: cell-based; conditions: Renilla, NL43, MT-2 cells infected for 4-5 days with recombinant NL4-3 Renilla luciferase virus, serial dilutions of compound
Summary of the method: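 EC50 was derived by median-effect curve fitting of luciferase activity. The signal comes from MT-2 cells infected for 4–5 days with 293T-produced NL4-3 reporter virus, nef partly replaced by Renilla luciferase, in the presence of serially diluted compound.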

| SMILES | CC50 at 4 day [1] | EC50 [2] |
| --- | --- | --- |
| Cn1nc(NS(C)(=O)=O)c2c(Cl)ccc(-n3c([C@H](Cc4cc(F)cc(F)c4)NC(=O)Cn4nc(C(F)F)c5c4C(F)(F)[C@@H]4C[C@H]54)nc4cc(-c5cc[nH]n5)ccc4c3=O)c21 (atropisomer, axis not shown; (aR)) [Example 78, N-((S)-1-(3-(4-chloro-1-methyl-3-(methylsulfonamido)-1H-indazol-7-yl)-4-oxo-7-(1H-pyrazol-3-yl)-3,4-dihydroquinazolin-2-yl)-2-(3,5-difluorophenyl)ethyl)-2-((3bS,4aR)-3-(difluoromethyl)-5,5-difluoro-3b,4,4a,5-tetrahydro-1H-cyclopropa[3,4]cyclopenta[1,2-c]pyrazol-1-yl)acetamide] | > 1000 nM | 0.12 nM |
| Cn1nc(NS(C)(=O)=O)c2c(Cl)ccc(-n3c([C@H](Cc4cc(F)cc(F)c4)NC(=O)Cn4nc(C(F)F)c5c4C(F)(F)[C@@H]4C[C@H]54)nc4cc(-c5ccc6c7c(ccnc57)CCO6)ccc4c3=O)c21 (atropisomer, axis not shown; (aR)) [Example 82, N-((S)-1-(3-(4-chloro-1-methyl-3-(methylsulfonamido)-1H-indazol-7-yl)-7-(2,3-dihydropyrano[4,3,2-de]quinolin-7-yl)-4-oxo-3,4-dihydroquinazolin-2-yl)-2-(3,5-difluorophenyl)ethyl)-2-((3bS,4aR)-3-(difluoromethyl)-5,5-difluoro-3b,4,4a,5-tetrahydro-1H-cyclopropa[3,4]cyclopenta[1,2-c]pyrazol-1-yl)acetamide] | > 1000 nM | 7 nM |
| Cn1nc(NS(C)(=O)=O)c2c(Cl)ccc(-n3c([C@H](Cc4cc(F)cc(F)c4)NC(=O)Cn4nc(C(F)F)c5c4C(F)(F)[C@@H]4C[C@H]54)nc4cc(-c5cncnc5)ccc4c3=O)c21 (atropisomer, axis not shown; (aR)) [Example 84, N-((S)-1-(3-(4-chloro-1-methyl-3-(methylsulfonamido)-1H-indazol-7-yl)-4-oxo-7-(pyrimidin-5-yl)-3,4-dihydroquinazolin-2-yl)-2-(3,5-difluorophenyl)ethyl)-2-((3bS,4aR)-3-(difluoromethyl)-5,5-difluoro-3b,4,4a,5-tetrahydro-1H-cyclopropa[3,4]cyclopenta[1,2-c]pyrazol-1-yl)acetamide] | > 1000 nM | 0.068 nM |
| COc1cccc(OC)c1-c1ccc2c(=O)n(-c3ccc(Cl)c4c(NS(C)(=O)=O)nn(C)c34)c([C@H](Cc3cc(F)cc(F)c3)NC(=O)Cn3nc(C(F)F)c4c3C(F)(F)[C@@H]3C[C@H]43)nc2c1 (atropisomer, axis not shown; (aR)) [Example 86, N-((S)-1-(3-(4-chloro-1-methyl-3-(methylsulfonamido)-1H-indazol-7-yl)-7-(2,6-dimethoxyphenyl)-4-oxo-3,4-dihydroquinazolin-2-yl)-2-(3,5-difluorophenyl)ethyl)-2-((3bS,4aR)-3-(difluoromethyl)-5,5-difluoro-3b,4,4a,5-tetrahydro-1H-cyclopropa[3,4]cyclopenta[1,2-c]pyrazol-1-yl)acetamide] | > 1000 nM | 0.5 nM |
| Cn1nc(NS(C)(=O)=O)c2c(Cl)ccc(-n3c([C@H](Cc4cc(F)cc(F)c4)NC(=O)Cn4nc(C(F)F)c5c4C(F)(F)[C@@H]4C[C@H]54)nc4cc(-c5ccccn5)ccc4c3=O)c21 (atropisomer, axis not shown; (aR)) [Example 87, N-((S)-1-(3-(4-chloro-1-methyl-3-(methylsulfonamido)-1H-indazol-7-yl)-4-oxo-7-(pyridin-2-yl)-3,4-dihydroquinazolin-2-yl)-2-(3,5-difluorophenyl)ethyl)-2-((3bS,4aR)-3-(difluoromethyl)-5,5-difluoro-3b,4,4a,5-tetrahydro-1H-cyclopropa[3,4]cyclopenta[1,2-c]pyrazol-1-yl)acetamide] | > 1000 nM | 0.09 nM |
| Cc1ccccc1-c1ccc2c(=O)n(-c3ccc(Cl)c4c(NS(C)(=O)=O)nn(C)c34)c([C@H](Cc3cc(F)cc(F)c3)NC(=O)Cn3nc(C(F)F)c4c3C(F)(F)[C@@H]3C[C@H]43)nc2c1 (atropisomer, axis not shown; (aR)) [Example 88, N-((S)-1-(3-(4-chloro-1-methyl-3-(methylsulfonamido)-1H-indazol-7-yl)-4-oxo-7-(o-tolyl)-3,4-dihydroquinazolin-2-yl)-2-(3,5-difluorophenyl)ethyl)-2-((3bS,4aR)-3-(difluoromethyl)-5,5-difluoro-3b,4,4a,5-tetrahydro-1H-cyclopropa[3,4]cyclopenta[1,2-c]pyrazol-1-yl)acetamide] | > 1000 nM | 0.73 nM |
| Cc1n[nH]c(C)c1-c1ccc2c(=O)n(-c3ccc(Cl)c4c(NS(C)(=O)=O)nn(C)c34)c([C@H](Cc3cc(F)cc(F)c3)NC(=O)Cn3nc(C(F)F)c4c3C(F)(F)[C@@H]3C[C@H]43)nc2c1 (atropisomer, axis not shown; (aR)) [Example 89, N-((S)-1-(3-(4-chloro-1-methyl-3-(methylsulfonamido)-1H-indazol-7-yl)-7-(3,5-dimethyl-1H-pyrazol-4-yl)-4-oxo-3,4-dihydroquinazolin-2-yl)-2-(3,5-difluorophenyl)ethyl)-2-((3bS,4aR)-3-(difluoromethyl)-5,5-difluoro-3b,4,4a,5-tetrahydro-1H-cyclopropa[3,4]cyclopenta[1,2-c]pyrazol-1-yl)acetamide] | > 1000 nM | 3.4 nM |
| Cc1cc(Cl)ccc1-c1ccc2c(=O)n(-c3ccc(Cl)c4c(NS(C)(=O)=O)nn(C)c34)c([C@H](Cc3cc(F)cc(F)c3)NC(=O)Cn3nc(C(F)F)c4c3C(F)(F)[C@@H]3C[C@H]43)nc2c1 (atropisomer, axis not shown; (aR)) [Example 90] | > 1000 nM | 5.7 nM |
| Cn1nc(NS(C)(=O)=O)c2c(Cl)ccc(-n3c([C@H](Cc4cc(F)cc(F)c4)NC(=O)Cn4nc(C(F)F)c5c4C(F)(F)[C@@H]4C[C@H]54)nc4cc(-c5ccc(S(=O)(=O)N6CCOCC6)cc5)ccc4c3=O)c21 (atropisomer, axis not shown; (aR)) [Example 91, N-((S)-1-(3-(4-chloro-1-methyl-3-(methylsulfonamido)-1H-indazol-7-yl)-7-(4-(morpholinosulfonyl)phenyl)-4-oxo-3,4-dihydroquinazolin-2-yl)-2-(3,5-difluorophenyl)ethyl)-2-((3bS,4aR)-3-(difluoromethyl)-5,5-difluoro-3b,4,4a,5-tetrahydro-1H-cyclopropa[3,4]cyclopenta[1,2-c]pyrazol-1-yl)acetamide] | > 1000 nM | 0.39 nM |
| Cc1noc(C)c1-c1ccc2c(=O)n(-c3ccc(Cl)c4c(NS(C)(=O)=O)nn(C)c34)c([C@H](Cc3cc(F)cc(F)c3)NC(=O)Cn3nc(C(F)F)c4c3C(F)(F)[C@@H]3C[C@H]43)nc2c1 (atropisomer, axis not shown; (aR)) [Example 94, N-((S)-1-(3-(4-chloro-1-methyl-3-(methylsulfonamido)-1H-indazol-7-yl)-7-(3,5-dimethylisoxazol-4-yl)-4-oxo-3,4-dihydroquinazolin-2-yl)-2-(3,5-difluorophenyl)ethyl)-2-((3bS,4aR)-3-(difluoromethyl)-5,5-difluoro-3b,4,4a,5-tetrahydro-1H-cyclopropa[3,4]cyclopenta[1,2-c]pyrazol-1-yl)acetamide] | > 1000 nM | 0.44 nM |
